Experimental data taken from patent publication US7521458B2, “Spiropiperidylrifamycins for the treatment of mycobacterial infections” (priority 2004, dated 2009).

Tests used:
Type in all cases: cell-based
[1] = tested on: Mycobacterium tuberculosis ATCC 35838; assay: Method of the proportions, Table 3 entry 3
[2] = tested on: Mycobacterium tuberculosis H37 RV; assay: Method of the proportions, Table 3 entry 5
[3] = tested on: Mycobacterium tuberculosis 3 strains assayed; assay: Method of the proportions, Table 3 entry 9
[4] = tested on: Mycobacterium tuberculosis ATCC 35822; assay: Method of the proportions, Table 3 entry 4
[5] = tested on: Mycobacterium tuberculosis ATCC 35820; assay: Method of the proportions, Table 3 entry 2
[6] = tested on: Mycobacterium tuberculosis 38 strains assayed; assay: Method of the proportions, Table 3 entry 6
[7] = tested on: Mycobacterium tuberculosis 1 strain assayed; assay: Method of the proportions, Table 3 entry 10
[8] = tested on: Mycobacterium tuberculosis 2 strains assayed; assay: Method of the proportions, Table 3 entry 8
[9] = tested on: Mycobacterium Kansasii 4 strains assayed; assay: Method of the proportions, Table 3 entry 12
[10] = tested on: Mycobacterium tuberculosis 8 strains assayed; assay: Method of the proportions, Table 3 entry 7
[11] = tested on: Mycobacterium avium-intracellulare complex 5 strains assayed; assay: Method of the proportions, Table 3 entry 11; settings: for MIC: Mycobacterium avium-intracellulare, five strains, all resistant
[12] = tested on: Mycobacterium tuberculosis ATCC 35837; assay: Method of the proportions, Table 3 entry 1
[13] = concentration analysed 0.2 μg/ml
[14] = concentration analysed 25 μg/ml

Compound | Sensitivity of strain (s/R) ([1]; concentration analysed 1 μg/ml) | Sensitivity of strain (s/R) ([2]; concentration analysed 1 μg/ml) | Sensitivity of strains (s/R) ([3]; concentration analysed 1 μg/ml) | Sensitivity of strain (s/R) ([4]; concentration analysed 1 μg/ml) | Sensitivity of strain (s/R) ([5]; concentration analysed 1 μg/ml) | Sensitivity of strains (s/R) ([6]; concentration analysed 1 μg/ml) | Sensitivity of strain (s/R) ([7]; concentration analysed 1 μg/ml) | Sensitivity of strains (s/R) ([8]; concentration analysed 1 μg/ml) | Sensitivity of strains (s/R) ([9]; concentration analysed 1 μg/ml) | Sensitivity of strains (s/R) ([10]; concentration analysed 1 μg/ml) | Sensitivity of strains (s/R) ([11]; concentration analysed 1 μg/ml) | Sensitivity of strain (s/R) ([12]; concentration analysed 1 μg/ml) | further results
4-deoxo-3,4-[(2R)-2-spiro(N-allyl-2,6-diphenyl-4-piperidil)-2,5-dihydro-1H-imidazo]rifamycin S [RFA 7M] | s (s means sensitive) | s (s means sensitive) | s (s means sensitive) | s (s means sensitive) | s (s means sensitive) | s (s means sensitive) | s (s means sensitive) | s (s means sensitive) | s (s means sensitive) | s (s means sensitive) | R (R means resistent) | R (R means resistent) | –
4-deoxo-3,4-[(2R)-2-spiro(N-buthyl-2,6-diphenyl-4-piperidil)-2,5-dihydro-1H-imidazo]rifamycin S [RFA 16M] | s (s means sensitive) | s (s means sensitive) | s (s means sensitive) | s (s means sensitive) | s (s means sensitive) | s (s means sensitive) | s (s means sensitive) | s (s means sensitive) | s (s means sensitive) | s (s means sensitive) | s/R | s (s means sensitive) | –
4-deoxo-3,4-[(2R)-2-spiro(N-homoallyl-2,6-diphenyl-4-piperidil)-2,5-dihydro-1H-imidazo]rifamycin S [RFA 15M] | s (s means sensitive) | s (s means sensitive) | s (s means sensitive) | s (s means sensitive) | s (s means sensitive) | s (s means sensitive) | s (s means sensitive) | s (s means sensitive) | s (s means sensitive) | s (s means sensitive) | s/R | R (R means resistent) | –
4-deoxo-3,4-[(2R)-2-spiro[2,6-bis(4-fluorophenyl)-4-piperidil]-2,5-dihydro-1H-imidazo]rifamycin S [RFA 5M] | s (s means sensitive) | s (s means sensitive) | s (s means sensitive) | s (s means sensitive) | s (s means sensitive) | s (s means sensitive) | s (s means sensitive) | s (s means sensitive) | s (s means sensitive) | s (s means sensitive) | s (s means sensitive) | s (s means sensitive) | –
4-deoxo-3,4-[(2R)-2-spiro[2,6-bis(4-methoxiphenyl)-4-piperidyl]-2,5-dihydro-1H-imidazo]rifamycin S [RFA 4M] | s (s means sensitive) | s (s means sensitive) | s (s means sensitive) | s (s means sensitive) | s (s means sensitive) | s (s means sensitive) | s (s means sensitive) | s (s means sensitive) | s (s means sensitive) | s (s means sensitive) | s/R | s (s means sensitive) | –
CC[C@@H](CO)NCCN[C@@H](CC)CO [EB, ethambutol] | – | – | – | – | – | – | – | – | – | – | – | – | Sensitivity of strain (s/R) ([1]; concentration analysed 5 μg/ml): R (R means resistent); Sensitivity of strain (s/R) ([2]; concentration analysed 5 μg/ml): s (s means sensitive); Sensitivity of strains (s/R) ([3]; concentration analysed 5 μg/ml): s (s means sensitive); Sensitivity of strain (s/R) ([4]; concentration analysed 5 μg/ml): s (s means sensitive); Sensitivity of strain (s/R) ([5]; concentration analysed 5 μg/ml): s (s means sensitive); Sensitivity of strains (s/R) ([6]; concentration analysed 5 μg/ml): s (s means sensitive); Sensitivity of strain (s/R) ([7]; concentration analysed 5 μg/ml): s (s means sensitive); Sensitivity of strains (s/R) ([8]; concentration analysed 5 μg/ml): s (s means sensitive); Sensitivity of strains (s/R) ([9]; concentration analysed 5 μg/ml): R (R means resistent); Sensitivity of strains (s/R) ([10]; concentration analysed 5 μg/ml): s (s means sensitive); Sensitivity of strains (s/R) ([11]; concentration analysed 5 μg/ml): R (R means resistent); Sensitivity of strain (s/R) ([12]; concentration analysed 5 μg/ml): s (s means sensitive)
NNC(=O)c1ccncc1 [IZ, isoniazid] | – | – | – | – | – | – | – | – | – | – | – | – | Sensitivity of strain (s/R) [1, 13]: s (s means sensitive); Sensitivity of strain (s/R) [2, 13]: s (s means sensitive); Sensitivity of strains (s/R) [3, 13]: s (s means sensitive); Sensitivity of strain (s/R) [4, 13]: R (R means resistent); Sensitivity of strain (s/R) [5, 13]: s (s means sensitive); Sensitivity of strains (s/R) [6, 13]: s (s means sensitive); Sensitivity of strain (s/R) [7, 13]: R (R means resistent); Sensitivity of strains (s/R) [8, 13]: R (R means resistent); Sensitivity of strains (s/R) [9, 13]: R (R means resistent); Sensitivity of strains (s/R) [10, 13]: s (s means sensitive); Sensitivity of strains (s/R) [11, 13]: R (R means resistent); Sensitivity of strain (s/R) [12, 13]: s (s means sensitive)
NC(=O)c1cnccn1 [PZ, pyrazinamide] | – | – | – | – | – | – | – | – | – | – | – | – | Sensitivity of strain (s/R) [1, 14]: s (s means sensitive); Sensitivity of strain (s/R) [2, 14]: s (s means sensitive); Sensitivity of strains (s/R) [3, 14]: s (s means sensitive); Sensitivity of strain (s/R) [4, 14]: s (s means sensitive); Sensitivity of strain (s/R) [5, 14]: s (s means sensitive); Sensitivity of strains (s/R) [6, 14]: s (s means sensitive); Sensitivity of strain (s/R) [7, 14]: s (s means sensitive); Sensitivity of strains (s/R) [8, 14]: s (s means sensitive); Sensitivity of strains (s/R) [9, 14]: R (R means resistent); Sensitivity of strains (s/R) [10, 14]: R (R means resistent); Sensitivity of strains (s/R) [11, 14]: R (R means resistent); Sensitivity of strain (s/R) [12, 14]: s (s means sensitive)
CO[C@H]1/C=C/O[C@@]2(C)Oc3c(C)c(O)c4c(c3C2=O)C2=NC3(CCN(CC(C)C)CC3)NC2=C(NC(=O)/C(C)=C\C=C\[C@H](C)[C@H](O)[C@@H](C)[C@@H](O)[C@@H](C)[C@H](OC(C)=O)[C@@H]1C)C4=O [RFB, rifabutin] | s (s means sensitive) | s (s means sensitive) | s (s means sensitive) | s (s means sensitive) | s (s means sensitive) | s (s means sensitive) | s (s means sensitive) | s (s means sensitive) | s (s means sensitive) | s (s means sensitive) | R (R means resistent) | R (R means resistent) | MIC [11]: > 1 mg/L
CO[C@H]1/C=C/O[C@@]2(C)Oc3c(C)c(O)c4c(O)c(c(/C=N/N5CCN(C)CC5)c(O)c4c3C2=O)NC(=O)/C(C)=C\C=C\[C@H](C)[C@H](O)[C@@H](C)[C@@H](O)[C@@H](C)[C@H](OC(C)=O)[C@@H]1C [RI, rifampicin] | s (s means sensitive) | s (s means sensitive) | s (s means sensitive) | s (s means sensitive) | s (s means sensitive) | s (s means sensitive) | s (s means sensitive) | s (s means sensitive) | s (s means sensitive) | s (s means sensitive) | R (R means resistent) | R (R means resistent) | MIC [11]: > 1 mg/L
CN[C@@H]1[C@H](O[C@H]2[C@H](O[C@H]3[C@H](O)[C@@H](O)[C@H](N=C(N)N)[C@@H](O)[C@@H]3N=C(N)N)O[C@@H](C)[C@]2(O)C=O)O[C@@H](CO)[C@H](O)[C@H]1O [SM] | – | – | – | – | – | – | – | – | – | – | – | – | Sensitivity of strain (s/R) ([1]; concentration analysed 4 μg/ml): s (s means sensitive); Sensitivity of strain (s/R) ([2]; concentration analysed 4 μg/ml): s (s means sensitive); Sensitivity of strains (s/R) ([3]; concentration analysed 4 μg/ml): R (R means resistent); Sensitivity of strain (s/R) ([4]; concentration analysed 4 μg/ml): s (s means sensitive); Sensitivity of strain (s/R) ([5]; concentration analysed 4 μg/ml): R (R means resistent); Sensitivity of strains (s/R) ([6]; concentration analysed 4 μg/ml): s (s means sensitive); Sensitivity of strain (s/R) ([7]; concentration analysed 4 μg/ml): R (R means resistent); Sensitivity of strains (s/R) ([8]; concentration analysed 4 μg/ml): s (s means sensitive); Sensitivity of strains (s/R) ([9]; concentration analysed 4 μg/ml): R (R means resistent); Sensitivity of strains (s/R) ([10]; concentration analysed 4 μg/ml): s (s means sensitive); Sensitivity of strains (s/R) ([11]; concentration analysed 4 μg/ml): s/R; Sensitivity of strain (s/R) ([12]; concentration analysed 4 μg/ml): s (s means sensitive)
NNC(=O)c1cccs1 [TCH, 2-tiophene hydrazo carboxilic acid] | R (R means resistent) | R (R means resistent) | R (R means resistent) | R (R means resistent) | R (R means resistent) | R (R means resistent) | R (R means resistent) | R (R means resistent) | R (R means resistent) | R (R means resistent) | R (R means resistent) | R (R means resistent) | –
